Data as given in patent publication EP0061162A2, “Cephalosporin derivatives, pharmaceutical compositions containing the same and production thereof” (KYOTO YAKUHIN KOGYO KABUSHIKI KAISHA, priority 1981, dated 1982).

Experiment: Acute oral toxicity test in mice
Conditions: mouse, in vivo, suspension in 1% methylcellulose solution, male mice (ICR, 5-week-old), doses 0.5 g to 5.0 g/kg
Experimental: The acut oral toxicity data for cephalosporin derivatives (I) and acid addition salt of the present invention in mice are shown below.
Animals: Male mice (ICR, 5-week-old), n=3
Method of administration: The cephalosporin derivatives as prepared in the above synthesis examples were administered in the form of suspension in 1% methylcellulose solution to mice orally at doses of 0.5 g to 5.0 g/kg.

Q: Which LD50 does the source give for CCOC(=O)OC(C)OC(=O)C1=CCS[C@@H]2[C@H](NC(=O)/C(=N\OC)c3csc(N)n3)C(=O)N12 (single isomer, unassigned) [Compound 1, l-(ethoxycarbonyloxy)ethyl 7-[2-(2-aminothiazol-4-yl)-2-methoxyiminoacetamido]-3-cephem-4-carboxylate (syn isomer)] here?
A: > 5000 mg/kg
